Measurements published in patent US10544143B2, “4-azaindole compounds” (BRISTOL-MYERS SQUIBB COMPANY, priority 2017, dated 2020).

Legend:
[1] = target: human TLR7 (Homo sapiens (Human), UniProt Q9NYK1); assay: TLR7 inhibition reporter assay (HEK-Blue SEAP); format: cell-based; details: HEK-Blue cells overexpressing human TLR7, gardiquimod 7.5 μM stimulation, SEAP reporter
Description: HEK-Blue™-cells (Invivogen) overexpressing human TLR7, TLR8 or TLR9 receptors were used for screening inhibitors of these receptors using an inducible SEAP (secreted embryonic alkaline phosphatase) reporter gene under the control of the IFN-β minimal promoter fused to five NF-κB and AP-1-binding sites. Briefly, cells are seeded into Greiner 384 well plates (15000 cells per well for TLR7, 20,000 for TLR8 and 25,000 for TLR9) and then treated with test compounds in DMSO to yield a final dose response concentration range of 0.05 nM-50 μM. After a 30 minute compound pre-treatment at room temperature, the cells are then stimulated with a TLR7 ligand (gardiquimod at a final concentration of 7.5 μM), TLR8 ligand (R848 at a final concentration of 15.9 μM) or TLR9 ligand (ODN2006 at a final concentration of 5 nM) to activate NF-κB and AP-1 which induce the production of SEAP. After a 22 hour incubation at 37° C., 5% CO2, SEAP levels are determined with the addition of HEK-Blue™ Detection reagent (Invivogen), a cell culture medium that allows for detection of SEAP, according to manufacturer's specifications.

[2] = target: human TLR8 (Homo sapiens (Human), UniProt Q9NR97); assay: TLR8 inhibition reporter assay (HEK-Blue SEAP); details: read-out: TLR8 IC50; HEK-Blue cells overexpressing human TLR8, R848 15.9 μM stimulation, SEAP reporter;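 further: SEAP driven by IFN-β minimal promoter carrying NF-κB and AP-1 sites, compounds dosed 0.05 nM to 50 µM for 22 h, inhibition scaled between agonist-plus-DMSO and reference-inhibitor wells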
Sequence of human TLR8 (Q9NR97 27-1041): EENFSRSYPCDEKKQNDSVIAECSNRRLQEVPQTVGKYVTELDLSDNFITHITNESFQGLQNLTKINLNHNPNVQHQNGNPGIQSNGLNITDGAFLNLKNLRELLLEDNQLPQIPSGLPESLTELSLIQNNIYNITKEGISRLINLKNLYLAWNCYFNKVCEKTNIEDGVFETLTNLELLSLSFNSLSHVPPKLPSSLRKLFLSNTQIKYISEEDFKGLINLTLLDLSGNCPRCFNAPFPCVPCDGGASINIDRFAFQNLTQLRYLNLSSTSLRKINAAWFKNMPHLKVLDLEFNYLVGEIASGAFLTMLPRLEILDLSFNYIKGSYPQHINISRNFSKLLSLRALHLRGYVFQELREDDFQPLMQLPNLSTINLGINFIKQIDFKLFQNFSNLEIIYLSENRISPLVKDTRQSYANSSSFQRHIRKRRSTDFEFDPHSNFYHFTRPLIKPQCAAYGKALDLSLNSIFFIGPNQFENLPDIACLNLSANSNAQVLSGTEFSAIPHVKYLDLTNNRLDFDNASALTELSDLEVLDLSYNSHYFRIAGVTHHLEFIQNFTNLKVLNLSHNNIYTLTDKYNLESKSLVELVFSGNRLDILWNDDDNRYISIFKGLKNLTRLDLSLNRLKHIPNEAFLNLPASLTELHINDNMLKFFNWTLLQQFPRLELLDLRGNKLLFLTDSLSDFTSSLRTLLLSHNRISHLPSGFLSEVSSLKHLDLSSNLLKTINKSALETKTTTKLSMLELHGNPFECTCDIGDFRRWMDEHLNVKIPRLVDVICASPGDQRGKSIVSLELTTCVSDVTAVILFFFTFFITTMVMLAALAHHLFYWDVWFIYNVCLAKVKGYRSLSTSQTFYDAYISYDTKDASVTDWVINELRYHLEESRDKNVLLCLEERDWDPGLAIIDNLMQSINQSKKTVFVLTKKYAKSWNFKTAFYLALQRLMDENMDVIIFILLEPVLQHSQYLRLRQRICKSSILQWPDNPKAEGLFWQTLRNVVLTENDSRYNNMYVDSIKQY

[3] = target: human TLR9 (Homo sapiens (Human), UniProt Q9NR96); assay: TLR9 inhibition reporter assay (HEK-Blue SEAP); details: read-out: TLR9 IC50; HEK-Blue cells overexpressing human TLR9, ODN2006 5 nM stimulation, SEAP reporter;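 further: SEAP driven by an IFN-β minimal promoter with NF-κB and AP-1 sites, read after 22 h, compounds dosed 0.05 nM–50 µM, inhibition scaled between agonist plus DMSO and reference-inhibitor wells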
Sequence of human TLR9 (Q9NR96 26-1032): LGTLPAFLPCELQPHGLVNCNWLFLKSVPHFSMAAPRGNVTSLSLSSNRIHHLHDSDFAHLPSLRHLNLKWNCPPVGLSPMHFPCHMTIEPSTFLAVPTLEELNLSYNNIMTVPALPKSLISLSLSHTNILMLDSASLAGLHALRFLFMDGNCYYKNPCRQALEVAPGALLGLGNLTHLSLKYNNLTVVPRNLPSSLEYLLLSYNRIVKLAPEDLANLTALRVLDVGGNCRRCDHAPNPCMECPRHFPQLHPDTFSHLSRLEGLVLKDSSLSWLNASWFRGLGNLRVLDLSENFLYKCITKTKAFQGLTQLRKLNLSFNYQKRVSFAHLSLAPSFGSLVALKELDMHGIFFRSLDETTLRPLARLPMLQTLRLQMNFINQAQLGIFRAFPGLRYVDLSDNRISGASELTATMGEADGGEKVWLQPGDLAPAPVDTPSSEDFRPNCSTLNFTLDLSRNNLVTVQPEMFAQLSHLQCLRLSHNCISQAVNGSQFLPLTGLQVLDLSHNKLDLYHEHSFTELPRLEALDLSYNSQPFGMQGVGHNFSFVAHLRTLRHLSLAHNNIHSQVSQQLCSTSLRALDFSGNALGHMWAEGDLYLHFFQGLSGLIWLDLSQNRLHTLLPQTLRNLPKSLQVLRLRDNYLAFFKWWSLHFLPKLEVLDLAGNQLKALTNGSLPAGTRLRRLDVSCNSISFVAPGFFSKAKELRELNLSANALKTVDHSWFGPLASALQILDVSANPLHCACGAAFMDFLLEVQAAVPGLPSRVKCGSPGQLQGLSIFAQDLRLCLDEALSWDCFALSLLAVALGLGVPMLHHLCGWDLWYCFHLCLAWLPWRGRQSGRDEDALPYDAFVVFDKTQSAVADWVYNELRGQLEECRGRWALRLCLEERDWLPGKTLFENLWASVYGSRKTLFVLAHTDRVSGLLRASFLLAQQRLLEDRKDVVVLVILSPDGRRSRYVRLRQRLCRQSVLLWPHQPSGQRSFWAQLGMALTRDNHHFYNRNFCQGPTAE

Sequence of human TLR7 (Q9NYK1 27-1049): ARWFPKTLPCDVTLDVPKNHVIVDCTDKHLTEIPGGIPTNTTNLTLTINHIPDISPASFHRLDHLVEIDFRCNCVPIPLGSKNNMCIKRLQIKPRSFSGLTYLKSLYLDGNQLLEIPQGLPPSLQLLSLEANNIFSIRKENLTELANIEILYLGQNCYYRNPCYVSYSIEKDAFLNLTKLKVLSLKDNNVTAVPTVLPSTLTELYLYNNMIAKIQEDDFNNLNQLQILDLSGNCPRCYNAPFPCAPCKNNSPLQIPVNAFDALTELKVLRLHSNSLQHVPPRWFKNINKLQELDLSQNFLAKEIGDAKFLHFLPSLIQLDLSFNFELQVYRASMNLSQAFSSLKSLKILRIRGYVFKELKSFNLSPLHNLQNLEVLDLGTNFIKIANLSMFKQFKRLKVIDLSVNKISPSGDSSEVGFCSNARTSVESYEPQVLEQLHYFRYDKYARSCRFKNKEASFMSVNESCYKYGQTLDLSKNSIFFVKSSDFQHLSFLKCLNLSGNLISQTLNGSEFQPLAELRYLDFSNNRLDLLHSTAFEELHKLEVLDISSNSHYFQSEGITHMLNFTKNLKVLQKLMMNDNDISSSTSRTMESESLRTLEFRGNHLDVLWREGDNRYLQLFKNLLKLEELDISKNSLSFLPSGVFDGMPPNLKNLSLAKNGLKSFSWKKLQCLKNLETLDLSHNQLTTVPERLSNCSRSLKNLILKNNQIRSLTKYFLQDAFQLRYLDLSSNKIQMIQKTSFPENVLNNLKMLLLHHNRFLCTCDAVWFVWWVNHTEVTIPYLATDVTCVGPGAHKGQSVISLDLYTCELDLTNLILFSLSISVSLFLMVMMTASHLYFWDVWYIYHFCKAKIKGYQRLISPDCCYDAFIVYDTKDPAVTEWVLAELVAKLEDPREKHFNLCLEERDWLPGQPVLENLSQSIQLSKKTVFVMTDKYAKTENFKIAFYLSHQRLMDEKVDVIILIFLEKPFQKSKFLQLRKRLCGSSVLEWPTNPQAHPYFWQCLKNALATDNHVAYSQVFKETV

**Q.** With `Cc1c(-c2[nH]c3ccc(N4CCN(C5COC5)CC4=O)nc3c2C(C)C)cn2ncnc2c1C` [Example 140] as the molecule, how does the IC50 [1] read?
**A.** Its IC50 is 127 nM.

**Q.** What about the IC50 [2] of the same molecule?
**A.** Its IC50 is 186 nM.

**Q.** What about the IC50 [3] of the same molecule?
**A.** The IC50 was > 50000 nM.

**Q.** Which results are given for `Cc1c(-c2[nH]c3ccc(N4CCN(CC(=O)N(C)C)CC4=O)nc3c2C(C)C)cn2ncnc2c1C` [Example 141]?
**A.** IC50 [1]: 134 nM; IC50 [2]: 148 nM; IC50 [3]: > 50000 nM

**Q.** Which IC50 [1] does the source give for `Cc1c(-c2[nH]c3ccc(N4CCN(C)CC4=O)nc3c2C(C)C)cn2ncnc2c1C` [Example 142] here?
**A.** The IC50 was 107 nM.

**Q.** And the IC50 [2]?
**A.** The IC50 was 45 nM.

**Q.** And the IC50 [3]?
**A.** Its IC50 is > 50000 nM.

**Q.** Which results are given for `Cc1c(-c2[nH]c3ccc(N4CCN(C(=O)CN5CCOCC5)CC4)nc3c2C(C)C)cn2ncnc2c1C` [Example 143]?
**A.** IC50 [1]: 7.8 nM; IC50 [2]: 4.5 nM; IC50 [3]: > 50000 nM

**Q.** Which results are given for `Cc1c(-c2[nH]c3ccc(N4CCN(CC(=O)N(C)C)CC4)nc3c2C(C)C)cn2ncnc2c1C` [Example 144]?
**A.** IC50 [1]: 8.4 nM; IC50 [2]: 1.2 nM; IC50 [3]: > 50000 nM

**Q.** What does the source list for `Cc1c(-c2[nH]c3ccc(N4CCN(C(=O)CN5CCCC5)CC4)nc3c2C(C)C)cn2ncnc2c1C` [Example 145]?
**A.** IC50 [1]: 1.5 nM; IC50 [2]: 0.49 nM; IC50 [3]: 8200 nM

**Q.** Which IC50 [1] does the source give for `Cc1c(-c2[nH]c3ccc(N4CCN(C(=O)CN5CCC5)CC4)nc3c2C(C)C)cn2ncnc2c1C` [Example 146] here?
**A.** Its IC50 is 5.6 nM.

**Q.** What about the IC50 [2] of the same molecule?
**A.** Its IC50 is 2.5 nM.

**Q.** What about the IC50 [3] of the same molecule?
**A.** Its IC50 is 12900 nM.

**Q.** With `Cc1c(-c2[nH]c3ccc(N4CCN(CCCS(C)(=O)=O)CC4)nc3c2C(C)C)cn2ncnc2c1C` [Example 147] as the molecule, how does the IC50 [1] read?
**A.** Its IC50 is 5 nM.

**Q.** What about the IC50 [2] of the same molecule?
**A.** The IC50 was 0.26 nM.

**Q.** What about the IC50 [3] of the same molecule?
**A.** Its IC50 is 18700 nM.

**Q.** What does the source list for `Cc1c(-c2[nH]c3ccc(N4CCN(CCC#N)CC4)nc3c2C(C)C)cn2ncnc2c1C` [Example 148]?
**A.** IC50 [1]: 97 nM; IC50 [2]: 16 nM; IC50 [3]: > 50000 nM

**Q.** How did the IC50 [1] turn out when `Cc1c(-c2[nH]c3ccc(N4CCN(CCC(N)=O)CC4)nc3c2C(C)C)cn2ncnc2c1C` [Example 149] was run?
**A.** The IC50 was 9.3 nM.

**Q.** And the IC50 [2]?
**A.** The IC50 was 0.4 nM.

**Q.** What about the IC50 [3] of the same molecule?
**A.** The IC50 was 19500 nM.

**Q.** For `Cc1c(-c2[nH]c3ccc(N4CCNC(=O)C4)nc3c2C(C)C)cn2ncnc2c1C` [Example 150], which IC50 [1] is on record?
**A.** The IC50 was 12 nM.

**Q.** What about the IC50 [2] of the same molecule?
**A.** The IC50 was 2.7 nM.

**Q.** What about the IC50 [3] of the same molecule?
**A.** Its IC50 is > 50000 nM.

**Q.** Which results are given for `Cc1c(-c2[nH]c3ccc(N4CCN(S(=O)(=O)CCN(C)C)CC4)nc3c2C(C)C)cn2ncnc2c1C` [Example 151]?
**A.** IC50 [1]: 1.2 nM; IC50 [2]: 1.2 nM; IC50 [3]: 12000 nM

**Q.** Which results are given for `Cc1c(-c2[nH]c3ccc(N4CCNC[C@@H]4C)nc3c2C(C)C)cn2ncnc2c1C` [Example 152]?
**A.** IC50 [1]: 2.7 nM; IC50 [2]: 1.6 nM; IC50 [3]: 5880 nM

**Q.** What does the source list for `Cc1c(-c2[nH]c3ccc(N4CCNC[C@H]4C)nc3c2C(C)C)cn2ncnc2c1C` [Example 153]?
**A.** IC50 [1]: 0.87 nM; IC50 [2]: 1.6 nM; IC50 [3]: 7150 nM

**Q.** Which results are given for `Cc1c(-c2[nH]c3ccc(N4CCN(CCN5CCOCC5)C(=O)C4)nc3c2C(C)C)cn2ncnc2c1C` [Example 154]?
**A.** IC50 [1]: 1920 nM; IC50 [2]: 600 nM; IC50 [3]: > 50000 nM

**Q.** `Cc1c(-c2[nH]c3ccc(N4CCN(CCN5CCOCC5)C(=O)C4)nc3c2C(C)C)cn2ncnc2c1C` [Example 155] was tested. Which IC50 [1] did it give?
**A.** The IC50 was 401 nM.

**Q.** What about the IC50 [2] of the same molecule?
**A.** Its IC50 is 56 nM.

**Q.** What about the IC50 [3] of the same molecule?
**A.** Its IC50 is > 50000 nM.

**Q.** What does the source list for `Cc1c(-c2[nH]c3ccc(N4CCN(C(=O)CNC5CCC5)CC4)nc3c2C(C)C)cn2ncnc2c1C` [Example 156]?
**A.** IC50 [1]: 1.5 nM; IC50 [2]: 0.79 nM; IC50 [3]: 6750 nM

**Q.** What does the source list for `Cc1c(-c2[nH]c3ccc(N4CCN(C(=O)CNC(C)C)CC4)nc3c2C(C)C)cn2ncnc2c1C` [Example 157]?
**A.** IC50 [1]: 2.2 nM; IC50 [2]: 1.2 nM; IC50 [3]: 8840 nM

**Q.** How did the IC50 [1] turn out when `Cc1c(-c2[nH]c3ccc(N4CCN(C(=O)CNCCO)CC4)nc3c2C(C)C)cn2ncnc2c1C` [Example 158] was run?
**A.** The IC50 was 2.3 nM.

**Q.** What about the IC50 [2] of the same molecule?
**A.** Its IC50 is 0.96 nM.

**Q.** What about the IC50 [3] of the same molecule?
**A.** The IC50 was 8260 nM.

**Q.** `COCCNCC(=O)N1CCN(c2ccc3[nH]c(-c4cn5ncnc5c(C)c4C)c(C(C)C)c3n2)CC1` [Example 159] was tested. Which IC50 [1] did it give?
**A.** The IC50 was 2.4 nM.

**Q.** And the IC50 [2]?
**A.** Its IC50 is 1 nM.

**Q.** And the IC50 [3]?
**A.** Its IC50 is 7740 nM.

**Q.** What does the source list for `Cc1c(-c2[nH]c3ccc(N4CCN(C(=O)CN5CCC(O)CC5)CC4)nc3c2C(C)C)cn2ncnc2c1C` [Example 160]?
**A.** IC50 [1]: 1.8 nM; IC50 [2]: 1.2 nM; IC50 [3]: 10600 nM

**Q.** Which IC50 [1] does the source give for `Cc1c(-c2[nH]c3ccc(N4CCN(C(=O)CNCC5CC5)CC4)nc3c2C(C)C)cn2ncnc2c1C` [Example 161] here?
**A.** The IC50 was 1.4 nM.

**Q.** What about the IC50 [2] of the same molecule?
**A.** Its IC50 is 0.92 nM.

**Q.** What about the IC50 [3] of the same molecule?
**A.** Its IC50 is 5920 nM.

**Q.** With `Cc1c(-c2[nH]c3ccc(N4CCCNCC4)nc3c2C(C)C)cn2ncnc2c1C` [Example 162] as the molecule, how does the IC50 [1] read?
**A.** The IC50 was 2.8 nM.

**Q.** And the IC50 [2]?
**A.** The IC50 was 2.8 nM.

**Q.** And the IC50 [3]?
**A.** Its IC50 is 23100 nM.

**Q.** With `Cc1c(-c2[nH]c3ccc(N4CCCN(CC(=O)N(C)C)CC4)nc3c2C(C)C)cn2ncnc2c1C` [Example 163] as the molecule, how does the IC50 [1] read?
**A.** Its IC50 is 9.7 nM.

**Q.** And the IC50 [2]?
**A.** The IC50 was 5 nM.

**Q.** And the IC50 [3]?
**A.** The IC50 was 24800 nM.

**Q.** What does the source list for `Cc1c(-c2[nH]c3ccc(N4CCC(NCC5(S(C)(=O)=O)CC5)C4)nc3c2C(C)C)cn2ncnc2c1C` (stereo not drawn) [Example 165]?
**A.** IC50 [1]: 11 nM; IC50 [2]: 0.68 nM; IC50 [3]: 22700 nM

**Q.** What does the source list for `COc1cc(-c2[nH]c3ccc(C4CCC(N(C)CCC#N)CC4)nc3c2C(C)C)cn2ncnc12` (stereo not drawn) [Example 166]?
**A.** IC50 [1]: 1.5 nM; IC50 [2]: 18 nM; IC50 [3]: 2190 nM
